In US9139577B2, “Sulfoximine substituted quinazolines for pharmaceutical compositions” (Boehringer Ingelheim International GmbH, priority 2013, dated 2015):

molecular target: MNK1 (Homo sapiens (Human), UniProt Q9BUB5); assay: MNK1 in vitro kinase assay (Assay 3), Z'-LYTE; assay type: biochemical; conditions: not given
Description: C. MNK1 In vitro Kinase Assay (Assay 3)
MNK1 Data can be obtained from the MNK1 Z′-LYTE® assay. The MNK1 Z′-LYTE® screening protocol and assay conditions are also described on www.invitrogen.com.
The assay is described as follows:
The Z′-LYTE® biochemical assay employs a fluorescence-based, coupled-enzyme format and is based on the differential sensitivity of phosphorylated and non-phosphorylated peptides to proteolytic cleavage. The peptide substrate is labeled with two fluorophores—one at each end—that make up a FRET pair.
In the primary reaction, the kinase transfers the gamma-phosphate of ATP to a single tyrosine, serine or threonine residue in a synthetic FRET-peptide. In the secondary reaction, a site-specific protease recognizes and cleaves non-phosphorylated FRET-peptides. Phosphorylation of FRET-peptides suppresses cleavage by the Development Reagent. Cleavage disrupts FRET between the donor (i.e., coumarin) and acceptor (i.e., fluorescein) fluorophores on the FRET-peptide, whereas uncleaved, phosphorylated FRET-peptides maintain FRET. A ratiometric method, which calculates the ratio (the Emission Ratio) of donor emission to acceptor emission after excitation of the donor fluorophore at 400 nm, is used to quantitate reaction progress, as shown in the equation below.
ASSAY SETUP: The inhibition of kinase activity of MNK1a was assessed using pre-activated GST-MNK1a. The 2×MKNK1 (MNK1) mixture is prepared in 50 mM HEPES pH 7.5, 0.01% BRIJ-35, 10 mM MgCl2, 4 mM MnCl2, 1 mM EGTA, 2 mM DTT.
The Test Compounds are screened in 1% DMSO (final) in the well.
All Peptide/Kinase Mixtures are diluted to a 2× working concentration in the MNK1 Kinase Buffer.
All ATP Solutions are diluted to a 4× working concentration in Kinase Buffer (50 mM HEPES pH 7.5, 0.01% BRIJ-35, 10 mM MgCl2, 1 mM EGTA).
Development Reagent Solution:
The Development Reagent is diluted in Development Buffer
1. 2.5 μL—4× Test Compound
2. 5 μL—2× Peptide/Kinase Mixture
5. 60-minute Kinase Reaction incubation at room temperature
6. 5 μl—Development Reagent Solution
8. 60-minute Development Reaction incubation at room temperature
9. Read on fluorescence plate reader and analyze the data
The following equations are used for each set of data points: […]
Correction for Background Fluorescence: FlSample-FlTCFl Ctl
% Phosphorylation (% Phos): 1−((Emission Ratio×F100%)−C100%)/((C0%−C100%)+[Emission Ratio×(F100%−F0%)])*100%
% Inhibition: 1−(% PhosSample/% Phos0% Inhibition Ctl)*100
Fl=Fluorescence Intensity
C100%=Average Coumarin emission signal of the 100% Phos. Control
C0%=Average Coumarin emission signal of the 0% Phos. Control
F100%=Average Fluorescein emission signal of the 100% Phos. Control
F0%=Average Fluorescein emission signal of the 0% Phos. Control
SelectScreen® Kinase Profiling Service uses XLfit from IDBS.

Chain of MNK1 (Q9BUB5 other isoform, or with tags, fused parts or gaps): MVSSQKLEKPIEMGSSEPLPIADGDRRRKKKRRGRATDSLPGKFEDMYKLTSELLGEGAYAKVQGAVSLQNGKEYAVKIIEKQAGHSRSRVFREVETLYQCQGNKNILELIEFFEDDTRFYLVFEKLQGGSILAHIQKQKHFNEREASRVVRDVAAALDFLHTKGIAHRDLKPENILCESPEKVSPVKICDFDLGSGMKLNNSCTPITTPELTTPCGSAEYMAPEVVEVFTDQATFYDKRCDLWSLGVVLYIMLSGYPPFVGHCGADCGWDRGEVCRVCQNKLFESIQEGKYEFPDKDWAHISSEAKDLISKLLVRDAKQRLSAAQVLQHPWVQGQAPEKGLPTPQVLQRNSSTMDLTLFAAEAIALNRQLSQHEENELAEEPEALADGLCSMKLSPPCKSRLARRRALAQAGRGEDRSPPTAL

IC50	SMILES
68 nM	C[C@@H](Oc1cc(F)ccc1Nc1ncnc2cc(N=S(C)(C)=O)cc(F)c12)C(=O)NCC(F)(F)F [Example 3.049]
54 nM	Cc1cc([C@@H](C)Oc2cc(F)ccc2Nc2ncnc3cc(N=S(C)(C)=O)cc(Cl)c23)on1 [Example 1.019]
25 nM	Cc1cc([C@@H](C)Oc2cc(F)ccc2Nc2ncnc3cc(N=S(C)(C)=O)cc(C)c23)on1 [Example 2.008]
34 nM	Cc1cc([C@@H](C)Oc2ncccc2Nc2ncnc3cc(N=S(C)(C)=O)cc(C)c23)on1 [Example 2.018]
71 nM	Cc1cc(N=S2(=O)CCC2)cc2ncnc(Nc3ccc(F)cc3O[C@H](C)C(F)(F)F)c12 [Example 2.006]
49 nM	Cc1cc([C@@H](C)Oc2ncccc2Nc2ncnc3cc(N=S4(=O)CCCC4)cc(C)c23)on1 [Example 2.009]
75 nM	Cc1cc(N=S2(=O)CCCC2)cc2ncnc(Nc3ccc(F)cc3O[C@H](C)C(=O)NCC(C)(C)O)c12 [Example 4.058]

same assay, conditions: compound concentration of 1 μM, read-out: MNK1 % INH

inhibition at 1 µM	SMILES
78%	CCNC(=O)NC[C@@H](C)Oc1cc(F)ccc1Nc1ncnc2cc(N=S(C)(C)=O)cc(C)c12 [Example 5.006]
97%	Cc1cc(N=S2(=O)CCCC2)cc2ncnc(Nc3ccc(F)cc3O[C@H](C)C(=O)NC(C)C)c12 [Example 4.042]
74%	Cc1cc(N=S(C)(C)=O)cc2ncnc(Nc3ccc(F)cc3O[C@H](C)C(=O)N3CCN(C)CC3)c12 [Example 4.056]
79%	CS(C)(=O)=Nc1cc(C2CC2)c2c(Nc3ccc(F)cc3OC(CF)CF)ncnc2c1 [Example 1.022]
86%	Cc1cc(N=S2(=O)CCCC2)cc2ncnc(Nc3ccc(F)cc3O[C@H](C)C(N)=O)c12 [Example 4.047]
86%	Cc1cc(N=S2(=O)CCCC2)cc2ncnc(Nc3ccc(F)cc3O[C@H](C)C(=O)N(C)CCO)c12 [Example 4.028]
88%	Cc1cc(N=S(C)(C)=O)cc2ncnc(Nc3ccc(F)cc3OCC3CCOC3)c12 (stereo not drawn) [Example 3.048]
88%	Cc1cc(N=S(C)(C)=O)cc2ncnc(Nc3ccc(F)cc3O[C@H](C)C(=O)N3CCCCC3)c12 [Example 4.062]
93%	Cc1cc(N=S(C)(C)=O)cc2ncnc(Nc3ccc(F)cc3OC(C)C#N)c12 (stereo not drawn) [Example 7.005]
97%	COCC(C)NC(=O)[C@@H](C)Oc1cc(F)ccc1Nc1ncnc2cc(N=S3(=O)CCCC3)cc(C)c12 (stereo partly drawn) [Example 4.040]
89%	Cc1cc(N=S(C)(C)=O)cc2ncnc(Nc3ccc(F)cc3OCC3CC3(F)F)c12 (stereo not drawn) [Example 3.008]
56%	Cc1cc(N=S(C)(C)=O)cc2ncnc(Nc3ccc(F)cc3OCC3CCNC(=O)C3)c12 (stereo not drawn) [Example 3.033]
70%	Cc1cc(N=S(C)(C)=O)cc2ncnc(Nc3ccc(F)cc3O[C@H](C)C(=O)N(C)CCO)c12 [Example 4.061]
64%	O=S1(=Nc2cc(C(F)(F)F)c3c(Nc4ccc(F)cc4OC(CF)CF)ncnc3c2)CCNCC1 [Example 1.009]
86%	Cc1cc(N=S(C)(C)=O)cc2ncnc(Nc3ccc(F)cc3OC(C)c3ccccn3)c12 (stereo not drawn) [Example 3.021]
73%	Cc1cc(N=S2(=O)CCCC2)cc2ncnc(Nc3ccc(F)cc3O[C@H](C)C(=O)N(C)Cc3ccccc3)c12 [Example 4.017]
97%	Cc1cc(N=S2(=O)CCCC2)cc2ncnc(Nc3ccc(F)cc3O[C@H](C)C(=O)N3CCCCC3)c12 [Example 4.067]

molecular target: MNK2a (Homo sapiens (Human), UniProt Q9HBH9); assay: MNK2a in vitro kinase assay (Assay 2), ADP-Glo; assay type: biochemical; conditions: read-out: MNK2 IC50
Sequence (Q9HBH9 whole entry): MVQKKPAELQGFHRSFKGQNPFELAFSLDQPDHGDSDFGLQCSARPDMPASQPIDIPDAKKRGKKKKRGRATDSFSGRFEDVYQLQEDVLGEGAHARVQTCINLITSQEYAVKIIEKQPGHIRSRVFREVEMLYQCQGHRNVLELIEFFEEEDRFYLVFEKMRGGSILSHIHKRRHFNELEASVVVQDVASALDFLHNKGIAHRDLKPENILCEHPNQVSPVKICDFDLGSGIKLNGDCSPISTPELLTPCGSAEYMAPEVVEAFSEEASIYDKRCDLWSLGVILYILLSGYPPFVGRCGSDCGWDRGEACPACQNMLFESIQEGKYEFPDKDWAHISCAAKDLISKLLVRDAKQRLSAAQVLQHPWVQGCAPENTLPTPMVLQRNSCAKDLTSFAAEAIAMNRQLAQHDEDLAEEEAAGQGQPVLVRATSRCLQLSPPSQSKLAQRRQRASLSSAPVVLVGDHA

IC50	SMILES
29 nM	CCNC(=O)NC[C@@H](C)Oc1cc(F)ccc1Nc1ncnc2cc(N=S(C)(C)=O)cc(C)c12 [Example 5.006]
1 nM	Cc1cc(N=S2(=O)CCCC2)cc2ncnc(Nc3ccc(F)cc3O[C@H](C)C(=O)NC(C)C)c12 [Example 4.042]
25 nM	Cc1cc(N=S(C)(C)=O)cc2ncnc(Nc3ccc(F)cc3O[C@H](C)C(=O)N3CCN(C)CC3)c12 [Example 4.056]
3 nM	CS(C)(=O)=Nc1cc(C2CC2)c2c(Nc3ccc(F)cc3OC(CF)CF)ncnc2c1 [Example 1.022]
5 nM	Cc1cc(N=S2(=O)CCCC2)cc2ncnc(Nc3ccc(F)cc3O[C@H](C)C(N)=O)c12 [Example 4.047]
4 nM	Cc1cc(N=S2(=O)CCCC2)cc2ncnc(Nc3ccc(F)cc3O[C@H](C)C(=O)N(C)CCO)c12 [Example 4.028]
2 nM	C[C@@H](Oc1cc(F)ccc1Nc1ncnc2cc(N=S(C)(C)=O)cc(F)c12)C(=O)NCC(F)(F)F [Example 3.049]
1 nM	Cc1cc([C@@H](C)Oc2cc(F)ccc2Nc2ncnc3cc(N=S(C)(C)=O)cc(Cl)c23)on1 [Example 1.019]
11 nM	Cc1cc(N=S(C)(C)=O)cc2ncnc(Nc3ccc(F)cc3OCC3CCOC3)c12 (stereo not drawn) [Example 3.048]
13 nM	Cc1cc(N=S(C)(C)=O)cc2ncnc(Nc3ccc(F)cc3O[C@H](C)C(=O)N3CCCCC3)c12 [Example 4.062]
3 nM	Cc1cc(N=S(C)(C)=O)cc2ncnc(Nc3ccc(F)cc3OC(C)C#N)c12 (stereo not drawn) [Example 7.005]
1 nM	Cc1cc([C@@H](C)Oc2cc(F)ccc2Nc2ncnc3cc(N=S(C)(C)=O)cc(C)c23)on1 [Example 2.008]
2 nM	COCC(C)NC(=O)[C@@H](C)Oc1cc(F)ccc1Nc1ncnc2cc(N=S3(=O)CCCC3)cc(C)c12 (stereo partly drawn) [Example 4.040]
5 nM	Cc1cc(N=S(C)(C)=O)cc2ncnc(Nc3ccc(F)cc3OCC3CC3(F)F)c12 (stereo not drawn) [Example 3.008]
2 nM	Cc1cc(N=S(C)(C)=O)cc2ncnc(Nc3ccc(F)cc3OCC3CCNC(=O)C3)c12 (stereo not drawn) [Example 3.033]
13 nM	Cc1cc(N=S(C)(C)=O)cc2ncnc(Nc3ccc(F)cc3O[C@H](C)C(=O)N(C)CCO)c12 [Example 4.061]
26 nM	O=S1(=Nc2cc(C(F)(F)F)c3c(Nc4ccc(F)cc4OC(CF)CF)ncnc3c2)CCNCC1 [Example 1.009]
2 nM	Cc1cc(N=S(C)(C)=O)cc2ncnc(Nc3ccc(F)cc3OC(C)c3ccccn3)c12 (stereo not drawn) [Example 3.021]
1 nM	Cc1cc([C@@H](C)Oc2ncccc2Nc2ncnc3cc(N=S(C)(C)=O)cc(C)c23)on1 [Example 2.018]
9 nM	Cc1cc(N=S2(=O)CCCC2)cc2ncnc(Nc3ccc(F)cc3O[C@H](C)C(=O)N(C)Cc3ccccc3)c12 [Example 4.017]
3 nM	Cc1cc(N=S2(=O)CCCC2)cc2ncnc(Nc3ccc(F)cc3O[C@H](C)C(=O)N3CCCCC3)c12 [Example 4.067]
2 nM	Cc1cc(N=S2(=O)CCC2)cc2ncnc(Nc3ccc(F)cc3O[C@H](C)C(F)(F)F)c12 [Example 2.006]
1 nM	Cc1cc([C@@H](C)Oc2ncccc2Nc2ncnc3cc(N=S4(=O)CCCC4)cc(C)c23)on1 [Example 2.009]
3 nM	Cc1cc(N=S2(=O)CCCC2)cc2ncnc(Nc3ccc(F)cc3O[C@H](C)C(=O)NCC(C)(C)O)c12 [Example 4.058]
